Where “and” joins values, the source holds several entries; their conditions need not be identical. Equal entries are not always repeated. Where two headings read alike, the source gives them in different places.
Experiments:
juvenile schistosomes = experiment: Microscopy analysis of juvenile morphology and motility (viability score 0-3); settings: 10 μM, 72 h, Table S1
[1] = test system: adult schistosomes (male and female worms); experiment: Adult worm ex vivo high-content image-based motility assay; assay type: cell-based, Schistosoma mansoni
in vitro = settings: human, HepG2 cytotoxicity (CC50)
Experimental: (§1) Next, we conducted a more detailed investigation by performing dose–response assays with each compound on HepG2 hepatic epithelial cells, as the liver is one of the major organs affected in intestinal schistosomiasis.
(§2) More details are provided in the Supporting Information.
(§3) Adult worm ex-vivo high-content assay
(§4) Male and female worms were placed in 96-well microplates (one worm per well) and incubated […]
(§5) to 72 hours. Brightfield timelapse images (100 images, 0.3-second intervals) were captured from each well before, immediately after, and every 24 hours following compound addition using an ImageXpress Micro Confocal High Content System equipped with a 2x objective. Image analysis was performed through a custom pipeline in CellProfiler software (v. 4.2.1, Windows OS).57 During analysis, the area of each worm and its displacement between consecutive image captures (i.e., images taken at successive time points) were measured using the parameters “Area” and “False Negative Rate” from the MeasureObjectSizeShape and MeasureObjectOverlap modules, respectively. These measurements were then modeled by a multilevel generalized linear statistical model. The effects of the experimental treatments on parasite motility were estimated with the integrated nested Laplace approximation (INLA) method, available in the INLA package of R (https://www.r-inla.org). The half-maximal inhibitory concentration (EC50) of each compound was calculated based on the worms' estimated motility using the […] 4-parameter logistic equation in GraphPad Prism version 9.0.0 for Windows (GraphPad Software, Boston, MA, USA; www.graphpad.com). […]
(§6) either at a fixed concentration (10 µM) or across a range of concentrations (0.0001–300 µM), or with DMSO as a negative control. Two hours before the end of the experiment (t0), a resazurin solution (final concentration: 0.01 mg/mL) was added to each well and the first fluorescence […]
(§7) reader. At the end of the incubation (t1), a second reading was performed. The fluorescence attributed solely to resorufin was measured by subtracting the fluorescence readings at t0 from those at t1. The results were expressed as percentual cell viability considering negative control

[2] = test system: HepG2 hepatic epithelial cells; experiment: in vitro; settings: for Selectivity Index (CC50/EC50), Female: HepG2 CC50 / female worm motility EC50, 48 h; for Selectivity Index (CC50/EC50), Male: HepG2 CC50 / male worm motility EC50, 48 h
Experimental: as §1, §2, §3, §4, §5, §6, §7

Sm.TRPMPZQ (wild-type) = Sm.TRPMPZQ (wild-type) (Schistosoma mansoni, UniProt A0A5K4F0X5); experiment: Ca2+ reporter (FLIPR) activation assay, wild-type Sm.TRPMPZQ in HEK293 cells; assay type: cell-based; settings: for EC50: 0.001 to 100 μM; for Emax: read-out: Bmax, wild-type Sm.TRPMPZQ activation
Sequence of Sm.TRPMPZQ (wild-type) (A0A5K4F0X5 entry or part of it): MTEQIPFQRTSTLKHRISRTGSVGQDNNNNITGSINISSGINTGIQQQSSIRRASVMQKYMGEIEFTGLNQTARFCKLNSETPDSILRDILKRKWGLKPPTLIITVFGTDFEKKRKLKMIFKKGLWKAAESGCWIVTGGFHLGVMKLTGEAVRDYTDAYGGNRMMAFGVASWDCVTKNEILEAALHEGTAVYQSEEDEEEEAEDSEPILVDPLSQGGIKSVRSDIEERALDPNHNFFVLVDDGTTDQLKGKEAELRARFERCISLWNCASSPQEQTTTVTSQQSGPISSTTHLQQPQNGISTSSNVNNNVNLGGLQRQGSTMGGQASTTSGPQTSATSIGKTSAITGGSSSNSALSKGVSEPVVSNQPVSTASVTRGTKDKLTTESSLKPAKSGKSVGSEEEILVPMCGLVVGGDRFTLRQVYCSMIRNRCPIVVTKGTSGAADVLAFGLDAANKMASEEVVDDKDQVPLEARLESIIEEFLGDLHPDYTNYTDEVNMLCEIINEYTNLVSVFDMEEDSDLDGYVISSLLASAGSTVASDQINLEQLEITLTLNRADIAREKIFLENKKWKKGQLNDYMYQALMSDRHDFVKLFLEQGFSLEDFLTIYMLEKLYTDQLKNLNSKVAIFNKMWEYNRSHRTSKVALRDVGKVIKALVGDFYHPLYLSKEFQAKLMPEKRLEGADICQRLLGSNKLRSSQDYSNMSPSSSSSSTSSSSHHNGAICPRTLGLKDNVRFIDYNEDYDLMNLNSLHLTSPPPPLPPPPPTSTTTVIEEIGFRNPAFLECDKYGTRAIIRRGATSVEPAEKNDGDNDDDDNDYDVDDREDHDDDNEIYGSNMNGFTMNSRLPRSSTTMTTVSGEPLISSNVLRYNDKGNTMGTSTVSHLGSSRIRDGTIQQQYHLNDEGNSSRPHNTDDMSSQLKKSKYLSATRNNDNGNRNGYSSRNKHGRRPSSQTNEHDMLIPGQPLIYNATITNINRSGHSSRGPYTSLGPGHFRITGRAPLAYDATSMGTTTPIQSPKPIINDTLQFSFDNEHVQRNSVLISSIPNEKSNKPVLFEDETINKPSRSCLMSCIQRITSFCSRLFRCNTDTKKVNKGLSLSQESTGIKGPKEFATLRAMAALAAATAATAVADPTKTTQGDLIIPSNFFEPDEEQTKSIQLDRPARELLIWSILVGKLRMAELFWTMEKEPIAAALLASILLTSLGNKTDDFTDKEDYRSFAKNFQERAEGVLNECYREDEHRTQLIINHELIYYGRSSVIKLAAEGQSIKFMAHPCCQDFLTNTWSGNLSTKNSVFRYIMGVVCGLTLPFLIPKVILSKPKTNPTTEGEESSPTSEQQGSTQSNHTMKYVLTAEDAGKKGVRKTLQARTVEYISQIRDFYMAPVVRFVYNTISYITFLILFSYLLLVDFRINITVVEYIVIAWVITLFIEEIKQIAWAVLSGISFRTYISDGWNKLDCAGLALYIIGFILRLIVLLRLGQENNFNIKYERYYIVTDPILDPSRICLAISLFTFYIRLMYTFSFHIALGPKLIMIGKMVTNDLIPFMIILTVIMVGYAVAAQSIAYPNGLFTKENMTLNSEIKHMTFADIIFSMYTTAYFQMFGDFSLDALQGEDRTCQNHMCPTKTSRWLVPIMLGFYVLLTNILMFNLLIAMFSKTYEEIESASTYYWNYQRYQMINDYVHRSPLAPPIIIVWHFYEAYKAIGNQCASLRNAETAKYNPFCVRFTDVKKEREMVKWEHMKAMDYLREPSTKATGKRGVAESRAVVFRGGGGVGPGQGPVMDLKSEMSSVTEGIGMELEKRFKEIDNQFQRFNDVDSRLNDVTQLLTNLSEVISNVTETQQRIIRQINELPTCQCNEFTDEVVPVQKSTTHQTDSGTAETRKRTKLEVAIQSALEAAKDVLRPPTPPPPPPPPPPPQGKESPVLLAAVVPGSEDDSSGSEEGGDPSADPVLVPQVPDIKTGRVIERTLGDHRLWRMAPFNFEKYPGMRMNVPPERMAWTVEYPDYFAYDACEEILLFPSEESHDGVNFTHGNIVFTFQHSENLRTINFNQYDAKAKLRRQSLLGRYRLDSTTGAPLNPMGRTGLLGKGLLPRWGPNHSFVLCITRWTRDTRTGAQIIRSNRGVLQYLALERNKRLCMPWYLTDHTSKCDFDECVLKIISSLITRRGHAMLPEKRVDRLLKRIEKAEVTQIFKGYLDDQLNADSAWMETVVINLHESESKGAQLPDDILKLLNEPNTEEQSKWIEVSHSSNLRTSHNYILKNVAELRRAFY
How it was run: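 Wild-type Sm.TRPMPZQ in HEK293 cells, with untransfected HEK293 as control. Cells dye-loaded in HBSS/20 mM HEPES buffer with 2.5 mM probenecid, 0.3% BSA and 0.03% ascorbic acid (40 min 37 °C, then 20 min RT). FLIPR Ca²⁺ flux at room temperature: 20 s baseline, then drug addition, then 250 s recording.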

Fh.TRPMPZQ = experiment: Ca2+ reporter (FLIPR) activation assay, Fh.TRPMPZQ in HEK293 cells; assay type: cell-based, Fasciola hepatica; settings: at the tested concentrations, data not shown
Experimental: (§8) Finally, selectivity for Sm.TRPMPZQ was assessed by profiling responses on the F. hepatica (Fh.TRPMPZQ) and E. granulosus (Eg.TRPMPZQ) TRPMPZQ orthologs, as well as the schistosome TRPM paralog Sm.TRPMMCLZ, a distinct TRPM channel activated by meclonazepam. Meclonazepam is an anthelmintic benzodiazepine known for its toxicity to juvenile schistosome worms.
(§9) The Ca^2+ reporter assay was performed using a Fluorescence Imaging Plate Reader (FLIPR) system, as described in the Supporting Information. […]
(§10) The half-maximal inhibitory
(§11) Windows (GraphPad Software, Boston, MA, USA; www.graphpad.com). […]
(§12) with DMSO as a negative control. […]
(§13) reader. […] The fluorescence
(§14) Untransfected HEK293 cells were used as a control.
(§15) 10% fetal bovine serum (FBS). […]
(§16) atmosphere containing 5% CO₂. Following incubation, the growth medium was removed and […]
(§17) buffer containing 2.5 mM probenecid in HBSS (with Ca²⁺ and Mg²⁺), 20 mM HEPES, 0.3% BSA (Sigma, A7030), and 0.03% L-ascorbic acid (Sigma). Cells were incubated for 40 minutes at 37 °C and subsequently for 20 minutes at room temperature. A total of seven PZQ derivatives were tested, using racemic PZQ included as a positive control on each assay plate. Drug dilutions were prepared in assay buffer without dye and probenecid and dispensed into separate flat-bottom 384-well plates. Calcium flux measurements were performed at room temperature using a […]
(§18) instrument (Molecular Devices). Baseline fluorescence was recorded for 20 seconds, followed by the addition of 5 µL of each drug solution, after which fluorescence was measured continuously for 250 seconds. […]

Sm.TRPMMCLZ = experiment: Ca2+ reporter (FLIPR) activation assay, Sm.TRPMMCLZ in HEK293 cells; assay type: cell-based, Schistosoma mansoni; settings: at the tested concentrations, data not shown
Experimental: as §8, §9, §10, §11, §12, §13, §14, §15, §16, §17, §18

Eg.TRPMPZQ = Eg.TRPMPZQ (Echinococcus granulosus, UniProt W6UVV9); experiment: cell-based; settings: HEK293, Ca2+ reporter, mean ± standard deviation; read-out: Bmax, Eg.TRPMPZQ activation
Sequence of Eg.TRPMPZQ (W6UVV9 entry or part of it): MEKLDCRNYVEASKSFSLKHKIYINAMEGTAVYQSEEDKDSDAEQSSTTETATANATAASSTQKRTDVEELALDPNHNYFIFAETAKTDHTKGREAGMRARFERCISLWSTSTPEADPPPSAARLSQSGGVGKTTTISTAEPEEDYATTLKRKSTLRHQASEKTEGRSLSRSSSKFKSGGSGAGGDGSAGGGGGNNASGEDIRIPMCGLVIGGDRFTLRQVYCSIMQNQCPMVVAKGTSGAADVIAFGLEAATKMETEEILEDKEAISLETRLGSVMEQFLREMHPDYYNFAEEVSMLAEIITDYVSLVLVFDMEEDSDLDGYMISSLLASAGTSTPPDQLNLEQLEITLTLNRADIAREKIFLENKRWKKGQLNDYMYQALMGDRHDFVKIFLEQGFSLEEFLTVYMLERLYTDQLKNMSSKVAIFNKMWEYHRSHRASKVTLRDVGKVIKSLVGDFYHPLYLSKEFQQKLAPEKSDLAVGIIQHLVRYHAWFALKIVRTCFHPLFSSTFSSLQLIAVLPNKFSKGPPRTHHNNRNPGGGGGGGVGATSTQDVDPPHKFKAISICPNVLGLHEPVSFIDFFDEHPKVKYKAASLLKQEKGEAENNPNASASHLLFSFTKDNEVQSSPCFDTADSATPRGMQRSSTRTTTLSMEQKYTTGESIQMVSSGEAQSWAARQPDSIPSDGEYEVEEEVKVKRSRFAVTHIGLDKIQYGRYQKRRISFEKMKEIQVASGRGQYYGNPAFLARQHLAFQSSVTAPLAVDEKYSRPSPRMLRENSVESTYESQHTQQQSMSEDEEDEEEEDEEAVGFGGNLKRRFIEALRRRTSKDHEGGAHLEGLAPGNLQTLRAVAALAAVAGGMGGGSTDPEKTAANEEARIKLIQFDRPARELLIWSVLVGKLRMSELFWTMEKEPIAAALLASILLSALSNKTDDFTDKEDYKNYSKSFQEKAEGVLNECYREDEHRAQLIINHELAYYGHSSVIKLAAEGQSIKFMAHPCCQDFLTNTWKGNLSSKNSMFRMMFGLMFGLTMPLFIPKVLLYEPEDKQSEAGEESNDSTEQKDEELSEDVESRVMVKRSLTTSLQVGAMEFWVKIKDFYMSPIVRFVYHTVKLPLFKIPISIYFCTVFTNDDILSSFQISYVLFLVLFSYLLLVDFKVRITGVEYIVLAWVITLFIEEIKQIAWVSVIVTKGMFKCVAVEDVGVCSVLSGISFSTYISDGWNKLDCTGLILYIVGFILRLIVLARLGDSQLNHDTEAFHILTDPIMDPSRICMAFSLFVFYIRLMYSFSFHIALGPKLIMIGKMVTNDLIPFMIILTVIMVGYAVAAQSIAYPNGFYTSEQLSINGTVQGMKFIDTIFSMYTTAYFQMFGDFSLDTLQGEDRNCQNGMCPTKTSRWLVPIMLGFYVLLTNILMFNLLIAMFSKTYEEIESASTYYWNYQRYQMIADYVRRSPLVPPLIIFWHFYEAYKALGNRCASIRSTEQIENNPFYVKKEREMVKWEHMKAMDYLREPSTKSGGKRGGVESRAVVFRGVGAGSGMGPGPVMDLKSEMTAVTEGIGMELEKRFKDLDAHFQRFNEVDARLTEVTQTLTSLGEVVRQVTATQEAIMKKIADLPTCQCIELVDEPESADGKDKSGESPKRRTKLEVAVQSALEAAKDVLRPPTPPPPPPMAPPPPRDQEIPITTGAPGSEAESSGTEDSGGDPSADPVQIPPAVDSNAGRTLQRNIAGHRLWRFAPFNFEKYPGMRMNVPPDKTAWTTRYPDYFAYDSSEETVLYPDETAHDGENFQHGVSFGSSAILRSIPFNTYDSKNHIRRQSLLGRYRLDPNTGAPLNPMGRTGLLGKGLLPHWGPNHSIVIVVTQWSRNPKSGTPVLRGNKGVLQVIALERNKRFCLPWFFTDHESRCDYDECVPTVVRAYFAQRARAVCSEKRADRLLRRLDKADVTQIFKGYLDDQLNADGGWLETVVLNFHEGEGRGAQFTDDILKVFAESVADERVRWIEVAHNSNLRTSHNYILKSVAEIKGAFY

[3] = Schistosoma mansoni, 0 h, female adult worms, 0 h (immediately after addition), single experiment or geometric mean, read-out: Female worm motility inhibition (EC50)
[4] = Schistosoma mansoni, 0 h, male adult worms, 0 h (immediately after addition), single experiment or geometric mean, read-out: Male worm motility inhibition (EC50)
[5] = Schistosoma mansoni, 0 h, male, 0 h, individual experiments, read-out: Male worm motility inhibition (EC50), values of independent experiments
[6] = Schistosoma mansoni, 24 h, female adult worms, 24 h, single experiment or geometric mean, read-out: Female worm motility inhibition (EC50)
[7] = Schistosoma mansoni, 24 h, male adult worms, 24 h, single experiment or geometric mean, read-out: Male worm motility inhibition (EC50)
[8] = Schistosoma mansoni, 24 h, male, 24 h, individual experiments, read-out: Male worm motility inhibition (EC50), values of independent experiments
[9] = Schistosoma mansoni, 48 h, female adult worms, 48 h, single experiment or geometric mean, read-out: Female worm motility inhibition (EC50)
[10] = Schistosoma mansoni, 48 h, male adult worms, 48 h, single experiment or geometric mean, read-out: Male worm motility inhibition (EC50)
[11] = Schistosoma mansoni, 72 h, female adult worms, 72 h, single experiment or geometric mean, read-out: Female worm motility inhibition (EC50)
[12] = Schistosoma mansoni, 72 h, male adult worms, 72 h, single experiment or geometric mean, read-out: Male worm motility inhibition (EC50)
[13] = Schistosoma mansoni, 72 h, male, 72 h, individual experiments, read-out: Male worm motility inhibition (EC50), values of independent experiments
[14] = female adult worms, 24 h, single experiment or geometric mean, read-out: Female worm motility inhibition (EC50)
[15] = male, 24 h, individual experiments, read-out: Male worm motility inhibition (EC50), values of independent experiments
[16] = male, 48 h, individual experiments, read-out: Male worm motility inhibition (EC50), values of independent experiments
[17] = male, 72 h, individual experiments, read-out: Male worm motility inhibition (EC50), values of independent experiments
[18] = values of independent experiments

O=C(C1CCCCC1)N1CC(=O)N2CCc3ccc([N+](=O)[O-])cc3C2C1 (centres unmarked) [Compound 2, 9-NO2–PZQ]
number of juvenile worms with viability score 0 (juvenile schistosomes): 70
number of juvenile worms with viability score 1 (juvenile schistosomes): 3
number of juvenile worms with viability score 2 (juvenile schistosomes): 7
number of juvenile worms with viability score 3 (juvenile schistosomes): 74
EC50 [1, 3]: 27.7 µM
EC50 [1, 4]: 10.7 µM
EC50 [1, 5]: 10 µM
EC50 [1, 6]: 28.8 µM
EC50 [1, 7]: 14.3 µM
EC50 [1, 8]: 10.3 µM
EC50 [1, 9]: 29.1 µM
EC50 [1, 10]: 15.9 µM
EC50 ([1]; Schistosoma mansoni, 48 h, male, 48 h, individual experiments, read-out: Male worm motility inhibition (EC50), values of independent experiments): 11.6 µM
EC50 [1, 11]: 30 µM
EC50 [1, 12]: 15.4 µM
EC50 [1, 13]: 11.9 µM
EC50 ([1]; female adult worms, 0 h (immediately after addition), single experiment or geometric mean, read-out: Female worm motility inhibition (EC50)): 27.7 µM
EC50 [1, 14]: 29 µM
EC50 ([1]; female adult worms, 48 h, single experiment or geometric mean, read-out: Female worm motility inhibition (EC50)): 29 µM
EC50 ([1]; male adult worms, 0 h (immediately after addition), single experiment or geometric mean, read-out: Male worm motility inhibition (EC50)): 11 µM
EC50 ([1]; male adult worms, 24 h, single experiment or geometric mean, read-out: Male worm motility inhibition (EC50)): 14 µM
EC50 ([1]; male adult worms, 48 h, single experiment or geometric mean, read-out: Male worm motility inhibition (EC50)): 16 µM
EC50 ([1]; male adult worms, 72 h, single experiment or geometric mean, read-out: Male worm motility inhibition (EC50)): 15 µM
EC50 [1, 15]: 19.8 µM
EC50 [1, 16]: 21.7 µM
EC50 [1, 17]: 19.9 µM
CC50 at 48 h (in vitro): 368 µM
CC50 at 48 h (in vitro; [18]): 354 µM
Selectivity Index (CC50/EC50), Female [2]: 12.7 and 13
Selectivity Index (CC50/EC50), Male [2]: 23.1 and 23
EC50 (Sm.TRPMPZQ (wild-type)): 13.5 ± 0.49 µM
Emax (Sm.TRPMPZQ (wild-type)): 66.6 ± 1.98%
activation of Fh.TRPMPZQ (Fh.TRPMPZQ): did not activate
activation of Sm.TRPMMCLZ (Sm.TRPMMCLZ): did not activate
Emax (Eg.TRPMPZQ): 114 ± 10.5%

[N-]=[N+]=Nc1ccc2c(c1)C1CN(C(=O)C3CCCCC3)CC(=O)N1CC2 (centres unmarked) [Compound 4]
number of juvenile worms with viability score 0 (juvenile schistosomes): 48
number of juvenile worms with viability score 1 (juvenile schistosomes): 4
number of juvenile worms with viability score 2 (juvenile schistosomes): 25
number of juvenile worms with viability score 3 (juvenile schistosomes): 12
EC50 [1, 3]: 6.7 µM
EC50 [1, 4]: 2.3 µM
EC50 [1, 5]: 2.83 µM
EC50 [1, 6]: 3.15 µM
EC50 [1, 7]: 1.8 µM
EC50 [1, 8]: 2.56 µM
EC50 [1, 9]: 9.4 µM
EC50 [1, 10]: 1.6 µM
EC50 [1, 11]: 3.48 µM
EC50 [1, 12]: 1.3 µM
EC50 [1, 13]: 1.22 µM
EC50 ([1]; Schistosoma mansoni, male, 0-72 h, read-out: EC50 against male adult worms (motility), span over incubation times): 1.3 to 2.3 µM
EC50 [1, 14]: 3.1 µM
EC50 ([1]; female adult worms, 72 h, single experiment or geometric mean, read-out: Female worm motility inhibition (EC50)): 3.5 µM
EC50 ([1]; female, 0 h, individual experiments, read-out: Female worm motility inhibition (EC50), values of independent experiments): 14.8 µM and 3.02 µM
EC50 ([1]; female, 48 h, individual experiments, read-out: Female worm motility inhibition (EC50), values of independent experiments): 26.8 µM and 3.34 µM
EC50 ([1]; male, 0 h, individual experiments, read-out: Male worm motility inhibition (EC50), values of independent experiments): 1.93 µM
EC50 [1, 15]: 1.42 µM and 1.74 µM
EC50 [1, 16]: 2.37 µM and 1.1 µM and 1.71 µM
EC50 [1, 17]: 1 µM and 1.72 µM
CC50 at 48 h (in vitro): 156 µM
CC50 at 48 h (in vitro; [18]): 155 µM
Selectivity Index (CC50/EC50), Female [2]: 16.6 and 17
Selectivity Index (CC50/EC50), Male [2]: 97.7 and 98
EC50 (Sm.TRPMPZQ (wild-type)): 0.89 ± 0.03 µM
Emax (Sm.TRPMPZQ (wild-type)): 80.5 ± 2.19%
activation of Fh.TRPMPZQ (Fh.TRPMPZQ): did not activate
activation of Sm.TRPMMCLZ (Sm.TRPMMCLZ): did not activate
Emax (Eg.TRPMPZQ): 145 ± 14.6%

From PMC12718081 (ACS Infectious Diseases, 2025)
